{"source": "patent US20210161994A1", "about": "“IMPLANTABLE DEVICE FOR THE DELIVERY OF OCTREOTIDE AND METHODS OF USE THEREOF” (Endo Pharmaceuticals Solutions Inc., priority 2008, published 2021)", "key": {"[1]": {"experiment": "Log P (partition coefficient)", "type": "physicochemical", "excerpt": "(§1) Tables 2A-D show release rates of octreotide from three different classes of polyurethane compounds (Tecophilic®, Tecoflex® and Carbothane®). The release rates have been normalized to surface area of the implant, thereby adjusting for slight differences in the size of the various implantable devices. Octreotide is water-soluble as indicated by the Log P value; for the purposes of the data provided, a Log P value of greater than about 2.0 is considered to be not readily soluble in aqueous solution. The polyurethanes were selected to have varying affinities for water soluble active agents and varying flexibility (as indicated by the variation in flex modulus).\nThe solubility of an active agent in an aqueous environment can be measured and predicted based on its partition coefficient (defined as the ratio of concentration of compound in aqueous phase to the concentration in an immiscible solvent). The partition coefficient (P) is a measure of how well a substance partitions between a lipid (oil) and water. The measure of solubility based on P is often given as Log P. In general, solubility is determined by Log P and melting point (which is affected by the size and structure of the compounds). Typically, the lower the Log P value, the more soluble the compound is in water. […]"}, "[2]": {"experiment": "Release rate of octreotide from polyurethane implantable devices", "type": "physicochemical", "conditions": "Tecophilic HP-60D-05, 5.5% EWC", "excerpt": "as §1\nPolyurethanes are available or can be prepared, for example, with a range of EWCs or flex moduli (Table 2). Tables 2A-B show normalized release rates for various active ingredients from polyurethane compounds. Tables […] show the non-normalized release rates for the same active ingredients, together with implant composition."}}, "data": [{"smiles": "C[C@@H](O)[C@@H]1NC(=O)[C@H](CCCCN)NC(=O)[C@@H](Cc2c[nH]c3ccccc23)NC(=O)[C@H](Cc2ccccc2)NC(=O)[C@@H](NC(=O)[C@H](N)Cc2ccccc2)CSSC[C@@H](C(=O)N[C@H](CO)[C@@H](C)O)NC1=O", "note": "[Octreotide Acetate]", "values": [{"measurement": "logP", "setting": "[1]", "value": 0.43}, {"measurement": "non-normalized release rate", "setting": "[2]", "value": 0}, {"measurement": "release rate normalized to surface area of the implant", "setting": "[2]; 10% HPC, 2% SA, 50 mg API", "value": 0}]}]}
